From PubChem BioAssay (NCI)
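The compound was tested at five concentrations on cells cultured in 96-well plates, with a 48-hour exposure period. The concentration for 50% growth inhibition is given as GI50. TGI: concentration producing complete growth inhibition.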

Assays:
Assay in all cases: DTP human tumour cell line panel, 48 h
786-0 renal = system: 786-0 renal
A498 renal = system: A498 renal
A549 NSCLC = system: A549 NSCLC
ACHN renal = system: ACHN renal
BT-549 breast = system: BT-549 breast
CAKI-1 renal = system: CAKI-1 renal
CCRF-CEM leukemia = system: CCRF-CEM leukemia
COLO 205 colon = system: COLO 205 colon
DU-145 prostate = system: DU-145 prostate
EKVX NSCLC = system: EKVX NSCLC
HCC-2998 colon = system: HCC-2998 colon
HCT-116 colon = system: HCT-116 colon
HCT-15 colon = system: HCT-15 colon
HL-60(TB) leukemia = system: HL-60(TB) leukemia
HOP-62 NSCLC = system: HOP-62 NSCLC
HOP-92 NSCLC = system: HOP-92 NSCLC
HS 578T breast = system: HS 578T breast
HT29 colon = system: HT29 colon
IGROV1 ovarian = system: IGROV1 ovarian
K-562 leukemia = system: K-562 leukemia
KM12 colon = system: KM12 colon
LOX IMVI melanoma = system: LOX IMVI melanoma
M14 melanoma = system: M14 melanoma
MALME-3M melanoma = system: MALME-3M melanoma
MCF7 breast = system: MCF7 breast
MDA-MB-231 breast = system: MDA-MB-231 breast
MDA-MB-435 = system: MDA-MB-435
MDA-MB-468 breast = system: MDA-MB-468 breast
MOLT-4 leukemia = system: MOLT-4 leukemia
NCI-H226 lung = system: NCI-H226 lung
NCI-H23 lung = system: NCI-H23 lung
NCI-H460 lung = system: NCI-H460 lung
NCI-H522 lung = system: NCI-H522 lung
NCI/ADR-RES ovarian = system: NCI/ADR-RES ovarian
OVCAR-3 ovarian = system: OVCAR-3 ovarian
OVCAR-4 ovarian = system: OVCAR-4 ovarian
OVCAR-5 ovarian = system: OVCAR-5 ovarian
OVCAR-8 ovarian = system: OVCAR-8 ovarian
PC-3 prostate = system: PC-3 prostate
RPMI-8226 leukemia = system: RPMI-8226 leukemia
RXF 393 renal = system: RXF 393 renal
SF-268 CNS = system: SF-268 CNS
SF-295 CNS = system: SF-295 CNS
SF-539 CNS = system: SF-539 CNS
SK-MEL-2 melanoma = system: SK-MEL-2 melanoma
SK-MEL-28 melanoma = system: SK-MEL-28 melanoma
SK-MEL-5 melanoma = system: SK-MEL-5 melanoma
SK-OV-3 ovarian = system: SK-OV-3 ovarian
SN12C renal = system: SN12C renal
SNB-19 CNS = system: SNB-19 CNS
SNB-75 CNS = system: SNB-75 CNS
SR leukemia = system: SR leukemia
SW-620 colon = system: SW-620 colon
T-47D breast = system: T-47D breast
TK-10 renal = system: TK-10 renal
U251 CNS = system: U251 CNS
UACC-257 melanoma = system: UACC-257 melanoma
UACC-62 melanoma = system: UACC-62 melanoma
UO-31 renal = system: UO-31 renal

In the case of `C=CC(=O)Nc1ccc(C(=O)/C=C/c2ccc(N(C)C)cc2)c(O)c1`, the GI50 (786-0 renal) was 2.18 µM, the TGI (786-0 renal) was 7.94 µM and the GI50 (A498 renal) was 10.5 µM. It also gave a TGI (A498 renal) of 36.8 µM, a GI50 (A549 NSCLC) of 2.57 µM and a TGI (A549 NSCLC) of 16.1 µM. For the same compound, the GI50 (ACHN renal) was 1.74 µM, the TGI (ACHN renal) was 3.79 µM and the GI50 (BT-549 breast) was 1.39 µM. The TGI (BT-549 breast) was 5.17 µM, the GI50 (CAKI-1 renal) was 2.85 µM and the TGI (CAKI-1 renal) was 10.3 µM. The GI50 (CCRF-CEM leukemia) was 2.56 µM, the TGI (CCRF-CEM leukemia) was over 100 µM and the GI50 (COLO 205 colon) was 3.49 µM. For the same compound, the TGI (COLO 205 colon) was 11.9 µM, the GI50 (DU-145 prostate) was 2.93 µM and the TGI (DU-145 prostate) was 12.6 µM. It also gave a GI50 (EKVX NSCLC) of 5.76 µM, a TGI (EKVX NSCLC) of 25.8 µM and a GI50 (HCC-2998 colon) of 2.41 µM. It also gave a TGI (HCC-2998 colon) of 8.77 µM, a GI50 (HCT-116 colon) of 1.49 µM and a TGI (HCT-116 colon) of 2.9 µM. The GI50 (HCT-15 colon) was 1.58 µM, the TGI (HCT-15 colon) was 3.75 µM and the GI50 (HL-60(TB) leukemia) was 2.54 µM. It also gave a TGI (HL-60(TB) leukemia) of 8.45 µM, a GI50 (HOP-62 NSCLC) of 3.15 µM and a TGI (HOP-62 NSCLC) of 13.3 µM. It also gave a GI50 (HOP-92 NSCLC) of 1.78 µM, a TGI (HOP-92 NSCLC) of 17 µM and a GI50 (HS 578T breast) of 3.26 µM. For the same compound, the TGI (HS 578T breast) was over 100 µM, the GI50 (HT29 colon) was 2.37 µM and the TGI (HT29 colon) was 7.08 µM. It also gave a GI50 (IGROV1 ovarian) of 3.51 µM, a TGI (IGROV1 ovarian) of 15.1 µM and a GI50 (K-562 leukemia) of 3.07 µM. The TGI (K-562 leukemia) was over 100 µM, the GI50 (KM12 colon) was 3.19 µM and the TGI (KM12 colon) was 12.5 µM. The GI50 (LOX IMVI melanoma) was 1.46 µM, the TGI (LOX IMVI melanoma) was 3.28 µM and the GI50 (M14 melanoma) was 1.97 µM. For the same compound, the TGI (M14 melanoma) was 6.62 µM, the GI50 (MALME-3M melanoma) was 2.19 µM and the TGI (MALME-3M melanoma) was 10.6 µM. It also gave a GI50 (MCF7 breast) of 1.88 µM, a TGI (MCF7 breast) of 17 µM and a GI50 (MDA-MB-231 breast) of 2.41 µM. It also gave a TGI (MDA-MB-231 breast) of 7.49 µM, a GI50 (MDA-MB-435) of 2.92 µM and a TGI (MDA-MB-435) of 14 µM. For the same compound, the GI50 (MDA-MB-468 breast) was 1.61 µM, the TGI (MDA-MB-468 breast) was 6.17 µM and the GI50 (MOLT-4 leukemia) was 2.8 µM. The TGI (MOLT-4 leukemia) was over 100 µM, the GI50 (NCI-H226 lung) was 2.46 µM and the TGI (NCI-H226 lung) was 11.3 µM. For the same compound, the GI50 (NCI-H23 lung) was 3.26 µM, the TGI (NCI-H23 lung) was 14.1 µM and the GI50 (NCI-H460 lung) was 2.75 µM. The TGI (NCI-H460 lung) was 10.9 µM, the GI50 (NCI-H522 lung) was 1.5 µM and the TGI (NCI-H522 lung) was 3.11 µM. The GI50 (NCI/ADR-RES ovarian) was 2.2 µM, the TGI (NCI/ADR-RES ovarian) was 6.83 µM and the GI50 (OVCAR-3 ovarian) was 2.79 µM. For the same compound, the TGI (OVCAR-3 ovarian) was 13.2 µM, the GI50 (OVCAR-4 ovarian) was 4.08 µM and the TGI (OVCAR-4 ovarian) was 43.6 µM. It also gave a GI50 (OVCAR-5 ovarian) of 2.55 µM, a TGI (OVCAR-5 ovarian) of 10.7 µM and a GI50 (OVCAR-8 ovarian) of 1.68 µM. For the same compound, the TGI (OVCAR-8 ovarian) was 4.28 µM, the GI50 (PC-3 prostate) was 4.57 µM and the TGI (PC-3 prostate) was 60.6 µM. For the same compound, the GI50 (RPMI-8226 leukemia) was 2.91 µM, the TGI (RPMI-8226 leukemia) was 12 µM and the GI50 (RXF 393 renal) was 1.43 µM. The TGI (RXF 393 renal) was 3.5 µM, the GI50 (SF-268 CNS) was 4 µM and the TGI (SF-268 CNS) was 22.9 µM. The GI50 (SF-295 CNS) was 5.69 µM, the TGI (SF-295 CNS) was 37.1 µM and the GI50 (SF-539 CNS) was 1.71 µM. It also gave a TGI (SF-539 CNS) of 3.78 µM, a GI50 (SK-MEL-2 melanoma) of 2.94 µM and a TGI (SK-MEL-2 melanoma) of 11.5 µM. It also gave a GI50 (SK-MEL-28 melanoma) of 2.02 µM, a TGI (SK-MEL-28 melanoma) of 6.44 µM and a GI50 (SK-MEL-5 melanoma) of 3.08 µM. It also gave a TGI (SK-MEL-5 melanoma) of 12.9 µM, a GI50 (SK-OV-3 ovarian) of 9.3 µM and a TGI (SK-OV-3 ovarian) of 26.7 µM. For the same compound, the GI50 (SN12C renal) was 2.03 µM, the TGI (SN12C renal) was 8.27 µM and the GI50 (SNB-19 CNS) was 3.72 µM. For the same compound, the TGI (SNB-19 CNS) was 16.1 µM, the GI50 (SNB-75 CNS) was 3.27 µM and the TGI (SNB-75 CNS) was 14.8 µM. The GI50 (SR leukemia) was 1.1 µM, the TGI (SR leukemia) was over 100 µM and the GI50 (SW-620 colon) was 1.67 µM. It also gave a TGI (SW-620 colon) of 3.89 µM, a GI50 (T-47D breast) of 2.33 µM and a TGI (T-47D breast) of 12.6 µM. It also gave a GI50 (TK-10 renal) of 3.16 µM, a TGI (TK-10 renal) of 11.8 µM and a GI50 (U251 CNS) of 2.73 µM. The TGI (U251 CNS) was 11.9 µM, the GI50 (UACC-257 melanoma) was 3.5 µM and the TGI (UACC-257 melanoma) was 18.6 µM. The GI50 (UACC-62 melanoma) was 1.76 µM, the TGI (UACC-62 melanoma) was 6.54 µM and the GI50 (UO-31 renal) was 1.31 µM. The TGI (UO-31 renal) was 14.3 µM.
